Experiment [1] relates to Candida parapsilosis. Briefly: Antifungal activity on Candida parapsilosis MY1010. It counts as functional. The conditions noted are these: Lodderomyces parapsilosis.
In experiment [2] the test system is Candida tropicalis. In words: Antifungal activity on Candida tropicalis MY101. It counts as functional.
Experiment [3] deals with Candida albicans. In words: Antifungal activity on Candida albicans MY1208. It counts as functional.
The subject of experiment [4] is Candida albicans. In words: Concentration inhibiting Candida beta-1,3-glucan synthesis was determined in a Candida albicans cell culture. It counts as functional, organism-based.
In experiment [5] the test system is Candida albicans. Briefly: Antifungal activity on Candida albicans MY1028. It counts as functional.
In experiment [6] the test system is Candida albicans. In words: Antifungal activity on Candida albicans MY1055. It counts as functional.

≈ marks a conversion by molar mass, not a printed value. Starred links: 1 amine or outer side, 2 acyl side, 3 side chain; linkers in the order of their positions; H or OH if unused. Positions of bridges follow the written chain, without caps; N, C: chain ends. Non-standard residues stand in square brackets, D forms with d. Residues, ends and D or L forms follow the SMILES beside them. *: point of attachment. Orn(4R-OH,5R-OH) = O=C([C@H](C[C@@H](O)[C@@H](O)N[*:3])N[*:1])[*:2]; hTyr(3S-OH,4S-OH) = N[C@H](C(=O)O)[C@H](O)[C@@H](O)c1ccc(O)cc1; Pro(3S-OH,4S-Me) = C[C@H]1CN[C@H](C(=O)O)[C@H]1O; Benzoyl(4-octyloxy) = CCCCCCCCOc1ccc(C(=O)*)cc1; hTyr = N[C@@H](CCc1ccc(O)cc1)C(=O)O; Hyp = O=C(O)[C@@H]1C[C@@H](O)CN1; Orn = NCCC[C@H](N)C(=O)O

As usually defined, the MFC is the lowest tested concentration that kills the fungus rather than only halting it. By IC50 is commonly meant the point on the concentration scale where inhibition reaches its midpoint. `C[C@@H](O)[C@@H]1NC(=O)[C@H](CCc2ccc(O)cc2)NC(=O)[C@@H]2C[C@@H](O)CN2C(=O)[C@H]([C@@H](C)O)NC(=O)[C@@H](N)CCCNC(=O)[C@H]([C@@H](C)O)NC1=O` (H-[Orn]T[Hyp][hTyr]TT; lactam 1-C): the MFC in experiment [1] was greater than 128 µg/mL; in experiment [2] it was 4 µg/mL (≈ 5.65 µM); in experiment [3], 8 µg/mL (≈ 11.3 µM); in experiment [5], 8 µg/mL (≈ 11.3 µM); in experiment [6], 8 µg/mL (≈ 11.3 µM). The same compound had an IC50 in experiment [4] greater than 10 µM.

In the case of `CCCCCCCCOc1ccc(C(=O)N[C@H]2CCCNC(=O)[C@@H]3CCCN3C(=O)[C@H]([C@@H](C)O)NC(=O)[C@H](Cc3ccc(O)cc3)NC(=O)[C@@H]3CCCN3C(=O)[C@H]([C@@H](C)O)NC2=O)cc1` ({Benzoyl(4-octyloxy)}-[Orn]TPYTP; lactam 1-C), the MFC in experiment [2], in experiment [3], in experiment [5] and in experiment [6] was greater than 64 µg/mL in each case. Also, in experiment [4], the IC50 was greater than 10 µM.

As to `CCCCCCCCOc1ccc(C(=O)N[C@H]2CCCNC(=O)[C@@H]3C[C@@H](O)CN3C(=O)[C@H]([C@@H](C)O)NC(=O)[C@H](Cc3ccc(O)cc3)NC(=O)[C@@H]3CCCN3C(=O)[C@H]([C@@H](C)O)NC2=O)cc1` ({Benzoyl(4-octyloxy)}-[Orn]TPYT[Hyp]; lactam 1-C), the MFC in experiment [1], in experiment [2], in experiment [3], in experiment [5] and in experiment [6] was greater than 128 µg/mL in each case. Further, the IC50 in experiment [4] is greater than 10 µM.

On to `CCCCCCCCOc1ccc(C(=O)N[C@H]2CCCNC(=O)[C@@H]3CCCN3C(=O)[C@H]([C@@H](C)O)NC(=O)[C@H](CCc3ccc(O)cc3)NC(=O)[C@@H]3CCCN3C(=O)[C@H]([C@@H](C)O)NC2=O)cc1` ({Benzoyl(4-octyloxy)}-[Orn]TP[hTyr]TP; lactam 1-C), for which the MFC in experiment [1] was greater than 128 µg/mL; in experiment [2], 4 µg/mL (≈ 4.35 µM); in experiment [3] it was 4 µg/mL (≈ 4.35 µM); in experiment [6], 4 µg/mL (≈ 4.35 µM). Besides, the IC50 in experiment [4] is greater than 10 µM.

As to `CCCCCCCCOc1ccc(C(=O)N[C@H]2CCCNC(=O)[C@@H]3CCCN3C(=O)[C@H]([C@@H](C)O)NC(=O)[C@H](Cc3ccc(O)cc3)NC(=O)[C@@H]3C[C@@H](O)CN3C(=O)[C@H]([C@@H](C)O)NC2=O)cc1` ({Benzoyl(4-octyloxy)}-[Orn]T[Hyp]YTP; lactam 1-C), the MFC in experiment [1], in experiment [2], in experiment [3] and in experiment [5] was greater than 128 µg/mL each time. Also, the IC50 in experiment [4] was greater than 10 µM.

Turning to `CCCCCCCCOc1ccc(C(=O)N[C@H]2CCCNC(=O)[C@@H]3C[C@@H](O)CN3C(=O)[C@H]([C@@H](C)O)NC(=O)[C@H](Cc3ccc(O)cc3)NC(=O)[C@@H]3C[C@@H](O)CN3C(=O)[C@H]([C@@H](C)O)NC2=O)cc1` ({Benzoyl(4-octyloxy)}-[Orn]T[Hyp]YT[Hyp]; lactam 1-C), the MFC in experiment [1], in experiment [2], in experiment [3], in experiment [5] and in experiment [6] was greater than 128 µg/mL in each case. Further, the IC50 in experiment [4] is greater than 10 µM.

With `CCCCCCCCOc1ccc(C(=O)N[C@H]2CCCNC(=O)[C@@H]3[C@@H](O)[C@@H](C)CN3C(=O)[C@H]([C@@H](C)O)NC(=O)[C@H](Cc3ccc(O)cc3)NC(=O)[C@@H]3C[C@@H](O)CN3C(=O)[C@H]([C@@H](C)O)NC2=O)cc1` ({Benzoyl(4-octyloxy)}-[Orn]T[Hyp]YT[Pro(3S-OH,4S-Me)]; lactam 1-C), the MFC in experiment [1], in experiment [2], in experiment [3], in experiment [5] and in experiment [6] was greater than 128 µg/mL each time.

Regarding `CCCCCCCCOc1ccc(C(=O)N[C@H]2CCCNC(=O)[C@@H]3CCCN3C(=O)[C@H]([C@@H](C)O)NC(=O)[C@H](CCc3ccc(O)cc3)NC(=O)[C@@H]3C[C@@H](O)CN3C(=O)[C@H]([C@@H](C)O)NC2=O)cc1` ({Benzoyl(4-octyloxy)}-[Orn]T[Hyp][hTyr]TP; lactam 1-C), the MFC in experiment [1] came out at 8 µg/mL (≈ 8.55 µM); in experiment [2], 0.25 µg/mL (≈ 0.267 µM); in experiment [3] it was 4 µg/mL (≈ 4.27 µM); in experiment [5], 4 µg/mL (≈ 4.27 µM); in experiment [6] it was 8 µg/mL (≈ 8.55 µM). The compound further registered a concentration for half-maximal inhibition (IC50) in experiment [4] of 10 µM.

With `CCCCCCCCOc1ccc(C(=O)N[C@H]2CCCNC(=O)[C@@H]3C[C@@H](O)CN3C(=O)[C@H]([C@@H](C)O)NC(=O)[C@H](CCc3ccc(O)cc3)NC(=O)[C@@H]3C[C@@H](O)CN3C(=O)[C@H]([C@@H](C)O)NC2=O)cc1` ({Benzoyl(4-octyloxy)}-[Orn]T[Hyp][hTyr]T[Hyp]; lactam 1-C), the MFC was greater than 128 µg/mL in experiment [1]; 8 µg/mL (≈ 8.4 µM) in experiment [2]; 8 µg/mL (≈ 8.4 µM) in experiment [3]; 8 µg/mL (≈ 8.4 µM) in experiment [5]; 8 µg/mL (≈ 8.4 µM) in experiment [6]. In experiment [4], this compound returned an IC50 of 10 µM.

Take `CCCCCCCCOc1ccc(C(=O)N[C@H]2CCCNC(=O)[C@@H]3[C@@H](O)[C@@H](C)CN3C(=O)[C@H]([C@@H](C)O)NC(=O)[C@H](CCc3ccc(O)cc3)NC(=O)[C@@H]3C[C@@H](O)CN3C(=O)[C@H]([C@@H](C)O)NC2=O)cc1` ({Benzoyl(4-octyloxy)}-[Orn]T[Hyp][hTyr]T[Pro(3S-OH,4S-Me)]; lactam 1-C): the MFC in experiment [1] stood at 8 µg/mL (≈ 8.28 µM); in experiment [2], 1 µg/mL (≈ 1.04 µM); in experiment [3], 2 µg/mL (≈ 2.07 µM); in experiment [5], 2 µg/mL (≈ 2.07 µM); in experiment [6], 1 µg/mL (≈ 1.04 µM). Also, in experiment [4], the half-inhibitory concentration (IC50) was 3 µM.

`CCCCCCCCOc1ccc(C(=O)N[C@H]2C[C@@H](O)[C@@H](O)NC(=O)[C@@H]3[C@@H](O)[C@@H](C)CN3C(=O)[C@H]([C@@H](C)O)NC(=O)[C@H]([C@H](O)[C@@H](O)c3ccc(O)cc3)NC(=O)[C@@H]3C[C@@H](O)CN3C(=O)[C@H]([C@@H](C)O)NC2=O)cc1` [CILOFUNGIN] ({Benzoyl(4-octyloxy)}-[Orn(4R-OH,5R-OH)]T[Hyp][hTyr(3S-OH,4S-OH)]T[Pro(3S-OH,4S-Me)]; lactam 1-C): the minimal fungicidal concentration (MFC) was 8 µg/mL (≈ 7.77 µM) in experiment [1]; 0.5 µg/mL (≈ 0.485 µM) in experiment [2]; 2 µg/mL (≈ 1.94 µM) in experiment [3]; 0.5 µg/mL (≈ 0.485 µM) in experiment [5]; 0.5 µg/mL (≈ 0.485 µM) in experiment [6]. The compound also had an IC50 in experiment [4] of 1 µM.

The record behind these values is ChEMBL document CHEMBL1125503, “Preparation and structure-activity relationships of simplified analogues of the antifungal agent cilofungin: a total synthesis approach” (J Med Chem, 1992).
